{"source": "patent US20220062166A1", "about": "“Self-Gelling Solutions for Administration of Therapeutics to the Inner Ear” (Spiral Therapeutics, Inc., priority 2019, published 2022)", "key": {"caspase 9": {"target": "T1, caspase 9 (Homo sapiens, UniProt P55211)", "T1 sequence (P55211 1-416)": "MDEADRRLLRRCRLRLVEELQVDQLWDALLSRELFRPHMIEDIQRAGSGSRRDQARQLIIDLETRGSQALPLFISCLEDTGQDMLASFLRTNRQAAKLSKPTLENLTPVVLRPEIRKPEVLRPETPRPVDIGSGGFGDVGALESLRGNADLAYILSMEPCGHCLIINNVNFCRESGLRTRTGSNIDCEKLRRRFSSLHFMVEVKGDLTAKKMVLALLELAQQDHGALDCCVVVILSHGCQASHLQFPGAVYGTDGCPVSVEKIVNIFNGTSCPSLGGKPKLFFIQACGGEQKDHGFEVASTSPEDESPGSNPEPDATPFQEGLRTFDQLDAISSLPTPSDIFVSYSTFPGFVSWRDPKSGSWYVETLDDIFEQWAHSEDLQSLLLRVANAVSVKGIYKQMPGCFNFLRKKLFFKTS", "assay": "Caspase 9 activation assay with recombinant proteins", "type": "biochemical", "conditions": "in %", "method": "The specificity of LPT99 was tested in vitro on Apaf1, caspase 3, and caspase 9 (proteins from the apoptotic cascade), and a broad panel of potential pharmacological targets.\nLPT99 inhibited the formation of the apoptosome complex composed by recombinant Apaf1, cyt c, deoxyadenosine triphosphate (dATP), and caspase 9. This activity was measured as inhibition of caspase 3 activation. […] To evaluate the specificity of the inhibition, an assay of caspase 3 and 9 activation was set up with recombinant proteins. The inhibitions of caspase 3 and 9 were 7.6±14.7 and 5.3±3.5, respectively, for LPT99."}, "opioid kOP": {"tested_on": "opioid kOP", "assay": "Off-target panel: kOP", "type": "binding", "method": "(§1) To identify off-target activities of LPT99, its selectivity against a panel of receptors (44 G-protein-coupled receptors [GPCR] and 4 non-GPCR), 4 ion channels, and 3 transporters were analyzed. The cell line, HEI-OC1 (house ear institute organ of Corti 1), which expresses several characteristic markers of the organ of Corti sensory cells (Kalinec, et al. , Audiol. Neurootol. 2003, 8(4), 177-89), was used to evaluate the efficacy of LPT99 in preventing apoptosis due to […]. Cells were pre-incubated with LPT99, followed by […] for 24 hours.\n(§2) For 14 of the tested targets—adenosine receptor 3 (A3); cholecystokinin: cholecystokinin receptor 1 (CCK1); melatonin receptor (MT1); neurokinin (NK2 and NK3); opioid (kOP and mOP); serotonin receptors (5HT-1A, 5HT-2A, 5HT−2B and 5HT−7); and vasopressin (V1A; Na+channel site 2 and Cl-GABA-gated channel)—the LPT99 affinity was >50%. At 1 μM, the inhibition of 13 of these targets was <50%, indicating a very low affinity with LPT99."}, "Cl-GABA-gated channel": {"tested_on": "Cl-GABA-gated channel", "assay": "Off-target panel: Cl- GABA-gated channel", "type": "binding", "method": "as §1, §2"}, "[1]": {"tested_on": "CisPt-induced hearing loss", "assay": "Model of CisPt-induced hearing loss in rats (TT administration)", "type": "in vivo, rat", "conditions": "TT administration of LPT99 in hydrogel, dose dependent", "method": "The protective effect of LPT99 was evaluated 3 days […] administration by functional measures, such as auditory brainstem response (ABR) threshold shift, DPOAE, and expression of biomarkers of apoptosis in cochlea and cytocochleograms."}, "[2]": {"assay": "Cochlear and plasma distribution after TT administration in rats (UPLC-ESI/MS/MS)", "type": "in vivo, rat", "text": "Cochleae were harvested and rinsed at several timepoints after intratympanic injection of drug product. Drug concentration (y axis) in cochlear homogenates is expressed as nanograms LPT99 per gram of cochlear homogenate.\nLPT99 cochlear distribution after TT administration was studied in rats. […] LPT99 concentration was quantified with an ultra-performance liquid chromatography tandem mass spectrometry (UPLC-ESI/MS/MS) system.\nDistribution of LPT99 was investigated in cochlea and plasma after a single TT administration in rats. The inhibitor was administered at 50, 100, or 200 μM (dissolved in 5% hydroxypropyl cyclodextrin in physiological serum)."}, "[3]": {"tested_on": "ion channels, including hERG potassium channels", "assay": "Effects on ion channels including hERG in CHO and HEK 293 cells", "type": "cell-based", "text": "Torsadogenic refers to the development of torsade de Pointes (TdP) arrhythmias"}, "[4]": {"tested_on": "BALB/c 3T3 mouse fibroblasts", "assay": "In vitro phototoxicity in BALB/c 3T3 mouse fibroblasts", "type": "cell-based", "conditions": "≤100 μM", "method": "An in vitro experiment was performed in BALB/c 3T3 mouse fibroblasts to determine the phototoxic potential of LPT99 at concentrations of ≤100 μM in 3T3L1 cells."}, "[5]": {"assay": "Physical stability of drug product vials", "type": "physicochemical", "conditions": "vials stored at 4C", "method": "Vials of the drug product were stored at either room temperature or 4° C. for a period greater than three months. To test the LPT99 concentration in vials, the liquid drug product was filtered through sterile 0.2 micron filters."}, "[6]": {"assay": "GLP dermal sensitization main study (Buehler test) in guinea pigs", "type": "in vivo, guinea pig", "conditions": "24 or 48 hours after the challenge dose, 797 μM", "method": "A GLP-compliant dermal sensitization study was conducted with LPT99 in guinea pigs. The objective was to assess potential dermal sensitization of LPT99 using the Buehler test (Buehler, Arch Dermatol. 1965, 91, 171-7). The test article, LPT99, was in a neutral-pH, buffered, isotonic solution containing a thermoreversible compound. The vehicle control was buffered at neutral pH and formulated as for the test article; it contained POLOXAMER® 407, disodium phosphate dodecahydrate hydrogen, sodium dihydrogen phosphate dihydrate, sodium chloride, and water for injection. The main study consisted of 2 groups of 20 or 10 guinea pigs. Group 1 was 10 male and 10 female guinea pigs dosed with the highest concentration of LPT99, 797 μM, that was used in the dose range-finding substudy (Group 1). Group 2 was 5 male and 5 female animals that were not dosed with LPT99 (Group 2) during the induction phase and served as naïve controls; Group 2 was challenged with LPT99 on Day 28. LPT99 was topically administered to the skin in the shaved scapula area in a volume of 50 μL on Study Days 0, 7, and 14 (induction doses), and on Day 28 (challenge dose). […] The PDII (post-challenge) was calculated for the test article or vehicle by dividing the sum of the Total Irritation Score by the number of observations (e.g., 3 days×6 animals=18 (number of observations)."}}, "note": "Entries after “also recorded” stand apart in the source; their conditions may differ.", "data": [{"smiles": "COc1ccc2[nH]cc(CCNC(=O)CC3C(=O)N(CCc4ccc(Cl)cc4Cl)CC(=O)N3CCc3cccs3)c2c1", "note": "(centres unmarked) [LPT99, 2-(4-(2,4-dichlorophenethyl)-3,6-dioxo-1-(2-(thiophen-2-yl)ethyl)piperazin-2-yl)-N-(2-(5-methoxy-1H-indol-3-yl)ethyl)acetamide]", "values": [{"measurement": "inhibition of caspase 9", "setting": "caspase 9", "value": "5.3±3.5"}, {"measurement": "inhibition kOP", "setting": "opioid kOP; 1 μM", "value": "< 50", "unit": "%"}, {"measurement": "affinity (inhibition) kOP", "setting": "opioid kOP; 10 μM", "value": "> 50", "unit": "%"}, {"measurement": "inhibition Cl-GABA-gated channel", "setting": "Cl-GABA-gated channel; 1 μM", "value": "< 50", "unit": "%"}, {"measurement": "affinity (inhibition) Cl-GABA-gated channel", "setting": "Cl-GABA-gated channel; 10 μM", "value": "> 50", "unit": "%"}, {"measurement": "protection against CisPt-induced hearing loss vs vehicle control", "setting": "[1]", "value": "protected against CisPt-induced hearing loss"}, {"measurement": "detection in administered cochleae", "setting": "[2]; 0.5 and 1 hour, 50, 100, or 200 μM in 5% hydroxypropyl cyclodextrin", "value": "detected in all administered cochleae"}, {"measurement": "LPT99 in plasma (not found; detection limit)", "setting": "[2]; after TT administration of the LPT99 formulation in a hydrogel", "value": "< 2", "unit": "ng/mL"}, {"measurement": "concentrations in contralateral cochleae and plasma", "setting": "[2]; all time points, 50, 100, or 200 μM in 5% hydroxypropyl cyclodextrin", "value": "BLLQ"}, {"measurement": "LPT99 concentrations in plasma (BLLQ)", "setting": "[2]; all time-points and doses", "value": "< 2", "unit": "ng/mL"}, {"measurement": "LPT99 concentrations in the contralateral cochleae (BLLQ)", "setting": "[2]; all time-points and doses", "value": "< 3", "unit": "ng/g"}, {"measurement": "distribution to cochlea after TT administration", "setting": "[2]; rats, FIG. 4", "value": "distributed locally to the cochlea; also recorded: distributed to cochlea in a dose-dependent manner"}, {"measurement": "distribution to contralateral cochleae or plasma", "setting": "[2]; rats, TT", "value": "No distribution to the contralateral cochleae or plasma was observed"}, {"measurement": "torsadogenic risk", "setting": "[3]", "value": "low torsadogenic risk"}, {"measurement": "cytotoxicity in presence or absence of ultraviolet-visible irradiation", "setting": "[4]", "value": "not cytotoxic"}, {"measurement": "time to LPT99 precipitation", "setting": "[5]", "value": "approximately 2 months"}, {"measurement": "Draize scores", "setting": "[6]", "value": "No Draize scores were >0"}]}]}
